Data reported in patent US20240299435A1, “COMPOSITIONS CONTAINING ADENOSINE TRIPHOSPHATE (ATP) AND METHODS OF USE FOR COGNITIVE FUNCTION” (priority 2021, published 2024).

Experiments:
[1] = 225 mg per day enteric-coated ATP for 15 days; cited from earlier work
[2] = Dynavision D2 Mode B (reactive) visuomotor reaction time task with cognitive stressor before and after a 3-minute all-out cycling test (3 MT); format: in vivo, human
Protocol: (§1) This study followed a double-blind, randomized cross-over design. Participants were randomized to either PeakATP or Placebo and consumed their assigned supplement for a period of 14-days. Following supplementation, participants reported back to the lab within 24-hours for the first of two experimental trials, which occurred in a randomized, counterbalanced cross-over fashion. During experimental trial 1 (T1), participants ingested an acute dose of their assigned supplement 30 minutes before completing pre-testing assessments (Dynavision D2) followed by a 3-minute all-out high-intensity effort (3 MT) on a cycle ergometer. […]
(§2) A convenience sample of healthy, recreationally active individuals were recruited. […] To be included in this study, participants were required to be healthy and ready for activity as determined by physical activity readiness questionnaire (Par-Q+) and Medical History questionnaire (MHQ), be classified as recreationally active (≥150 minutes exercise per week) and not be taking and be willing to abstain from creatine or beta-alanine supplementation or be willing to complete a 4-week wash-out period prior to enrolling if taking creatine or beta-alanine and be willing to abstain from supplementing with either for the duration of the study. […]
(§3) Reaction time was assessed using the Dynavision D2 visuomotor training device. […]

[3] = Dynavision D2 Mode A (proactive) visuomotor reaction time task before and after a 3-minute all-out cycling test (3 MT); format: in vivo, human; conditions: at 60 P; p=0.028
Protocol: as §1, §2, §3

[4] = 400 mg per day ATP for 15 days; cited from earlier work

## Nc1ncnc2c1ncn2[C@@H]1O[C@H](COP(=O)(O)OP(=O)(O)OP(=O)(O)O)[C@@H](O)[C@H]1O [ATP, adenosine-5′-triphosphate]
[1]
  total bench press lifting volume and within-group set-one repetitions to failure: increased
[2]; at IP (p=0.015) and 60 P (p=0.001)
  Mode B avgRT compared to PRE: significantly faster
[2]; at any time point, p's>0.05
  Mode B avgRT compared to placebo: not significantly different
[3]
  Mode A number of hits compared to placebo: significantly greater
[4]
  minimum peak torque in set two of a knee extensor bout: increased
